Test results from article PMC5357639 (Frontiers in Chemistry, 2017).
≈ marks a conversion by molar mass, not a printed value. Entries after “also recorded” stand apart in the source; their conditions may differ. Like-named read-outs stand apart in the source and are kept apart here. Where a SMILES comes first, the peptide text is derived from it. [ ]: non-standard residue; d: D form. The star is where a group is joined. Orn(α-tetramethylguanidino) = CN(C)C(=N[C@@H](CCCN)C(=O)*)N(C)C; Orn = NCCC[C@H](N)C(=O)O

Tests used:
E. coli ATCC 25922 [1] = settings: cited from earlier work
Description: (§1) Antimicrobial peptides (AMPs) are considered as promising alternatives to common antibiotics that threateningly lose their therapeutic potentials against multidrug-resistant pathogens (Fox, [2013]; Wang et al., [2015]). In contrast to approved therapeutic peptide hormones, antimicrobial peptides have to be administered at much higher doses, which may amplify general drawbacks of peptide therapeutics. For example, the diabetes peptide drugs exenatide and pramlintide are given at daily doses of 20 μg (Byetta®; ~0.5 μg/kg) and 120 μg (Symlin®; ~1.5 μg/kg; Heine et al., [2005]; Hay et al., [2015]) ... || Apidaecin analogs Api88 and Api137 are similarly active against Gram-negative bacteria with a tendency of higher activity of Api88 against K. pneumoniae (Czihal et al., [2012]; Berthold et al., [2013]). However, Api88 carries a C-terminal amide that is responsible for its very fast proteolytic cleavage in serum, the supernatant obtained after complete coagulation and centrifugation of blood. The in vitro serum stability assay, which is an important in vitro criterion to select therapeutic peptides for systemic applications, yielded very short half-life times of 5 min for Api88, which indicate ...

[2] = mouse, in vivo, ip, 5 mg/kg; cited from earlier work
Description: The recovery rates obtained from the spiked samples, were used to calculate the total amounts of intact peptides in blood, liver, and kidneys after intraperitoneal administration (Figures 6B–E, Tables S10, S11). The relative recovery in the studied organs and blood was only around 1.5 ± 0.6–2.1 ± 0.7% of the injected peptide amounts. Considering the mean weight of 29 g per mouse in this study and the weights of blood, liver, two kidneys, and brain with 2.2, 1.5, 0.5, and 0.5 g, respectively (~16% of the total weight), around 12% of the injected peptide quantities were detected in the samples c ...

70S ribosomes = settings: fluorescence polarization assay; ref Krizsan et al., 2014; cited from earlier work
Description: Antimicrobial peptides (AMPs) are considered as promising alternatives to common antibiotics that threateningly lose their therapeutic potentials against multidrug-resistant pathogens (Fox, [2013]; Wang et al., [2015]). In contrast to approved therapeutic peptide hormones, antimicrobial peptides have to be administered at much higher doses, which may amplify general drawbacks of peptide therapeutics. For example, the diabetes peptide drugs exenatide and pramlintide are given at daily doses of 20 μg (Byetta®; ~0.5 μg/kg) and 120 μg (Symlin®; ~1.5 μg/kg; Heine et al., [2005]; Hay et al., [2015]) ...

in vitro = in vitro ADME, CD-1 mice; settings: female, CD-1, mouse, cerebrospinal or other body fluid
Description: Peritoneal lavage (1.5–2 mL) were collected from three euthanized female CD-1 mice (14 weeks, 32–33 g) after injecting sterile PBS intraperitoneal (4 mL). Peptides were incubated with aliquots (95 μL) of fresh lavage (75 μg/mL, 37°C, 750 rpm). After 0, 30, and 60 min trichloroacetic acid (25 μL, 15% w/v) was added to the samples to precipitate proteins, incubated on ice (10 min), and centrifuged (5 min, 12.400 × g). Supernatants were neutralized with sodium hydroxide (1 mol/L) and analyzed by RP-HPLC using a Poroshell 120 SB-C18-column (2.1 mm internal diameter, 100 mm length, 2.7 μm particle size, 12 nm pore size, Agilent Technologies Inc., Santa Clara, CA, USA) at 60°C and an aqueous acetonitrile gradient containing trifluoroacetic acid (0.1%, v/v). Absorbance was recorded at a wavelength of 214 nm.

E. coli ATCC 25922 [3] = settings: same infection model; ref Schmidt et al., 2016; cited from earlier work
Description: as §1, with “[…] Api137 appeared more efficient in this septicemia model due to” for “For example,”, “better scores obtained” for “diabetes peptide drugs exenatide and pramlintide are given”, “at” for “at daily doses of 20 μg (Byetta®; ~0.5 μg/kg) and 120 μg (Symlin®; ~1.5 μg/kg; Heine et al., [2005]; Hay et al., [2015])”

[4] = mouse, in vivo, ip; cited from earlier work
Description: Apidaecin analogs Api88 and Api137 are similarly active against Gram-negative bacteria with a tendency of higher activity of Api88 against K. pneumoniae (Czihal et al., [2012]; Berthold et al., [2013]). However, Api88 carries a C-terminal amide that is responsible for its very fast proteolytic cleavage in serum, the supernatant obtained after complete coagulation and centrifugation of blood. The in vitro serum stability assay, which is an important in vitro criterion to select therapeutic peptides for systemic applications, yielded very short half-life times of 5 min for Api88, which indicate ...

[5] = cited from earlier work
Description: Proline-rich antimicrobial peptides (PrAMPs) represent promising alternative therapeutic options for the treatment of multidrug-resistant bacterial infections. PrAMPs are predominantly active against Gram-negative bacteria by inhibiting protein expression via at least two different modes of action, i.e., blocking the ribosomal exit tunnel of 70S ribosomes (oncocin-type binding) or inhibiting the assembly of the 50S ribosomal subunit (apidaecin-type binding). The in vivo efficacy and favorable biodistribution of oncocins confirmed the therapeutic potential of short PrAMPs for the first time, wh ... || Antimicrobial peptides (AMPs) are considered as promising alternatives to common antibiotics that threateningly lose their therapeutic potentials against multidrug-resistant pathogens (Fox, [2013]; Wang et al., [2015]). In contrast to approved therapeutic peptide hormones, antimicrobial peptides have to be administered at much higher doses, which may amplify general drawbacks of peptide therapeutics. […]

[6] = fresh peritoneal lavage (PBS injected intraperitoneal), ex vivo; settings: CD-1 mice, 37°C, up to 60 min
[7] = plasma after intravenous administration; settings: CD-1 mice, up to 60 min
mouse serum in vitro = settings: cited from earlier work
[8] = Lithium-heparin plasma after intraperitoneal administration; settings: NMRI mice, up to 90 min
[9] = liver homogenates after intraperitoneal administration; settings: NMRI mice, up to 90 min
[10] = metabolites, in vitro, no method in this paper, reference not given
[11] = E. coli ATCC 25922, ref Knappe et al., 2016c

In the case of `CC[C@H](C)[C@H](NC(=O)[C@H](Cc1ccc(O)cc1)NC(=O)[C@@H](NC(=O)[C@@H]1CCCN1C(=O)[C@H](CCCNC(=N)N)NC(=O)[C@H](CC(N)=O)NC(=O)[C@H](CC(N)=O)NC(=O)[C@H](CCCN)N=C(N(C)C)N(C)C)C(C)C)C(=O)N1CCC[C@H]1C(=O)N[C@@H](CCCNC(=N)N)C(=O)N1CCC[C@H]1C(=O)N[C@@H](CCCNC(=N)N)C(=O)N1CCC[C@H]1C(=O)N1CCC[C@H]1C(=O)N[C@@H](Cc1c[nH]cn1)C(=O)N1CCC[C@H]1C(=O)O` [Api1-16] ({Orn(α-tetramethylguanidino)}-NNRPVYIPRPRPPHP-OH), the MIC (E. coli ATCC 25922 [1]; [10]) is listed as > 128 µg/mL.
For `CC[C@H](C)[C@H](NC(=O)[C@H](Cc1ccc(O)cc1)NC(=O)[C@@H](NC(=O)[C@@H]1CCCN1C(=O)[C@H](CCCNC(=N)N)NC(=O)[C@H](CC(N)=O)NC(=O)[C@H](CC(N)=O)NC(=O)[C@H](CCCN)N=C(N(C)C)N(C)C)C(C)C)C(=O)N1CCC[C@H]1C(=O)N[C@@H](CCCNC(=N)N)C(=O)N1CCC[C@H]1C(=O)N[C@@H](CCCNC(=N)N)C(=O)N1CCC[C@H]1C(=O)N1CCC[C@H]1C(=O)N[C@@H](Cc1c[nH]cn1)C(=O)N1CCC[C@H]1C(=O)N[C@@H](CCCNC(=N)N)C(=O)O` [Api1-17] ({Orn(α-tetramethylguanidino)}-NNRPVYIPRPRPPHPR-OH), the MIC (E. coli ATCC 25922 [1]; [10]) is given as 64 µg/mL.
For `CC[C@H](C)[C@H](NC(=O)[C@@H](CCCNC(=N)N)NC(=O)[C@H](CCCNC(=N)N)NC(=O)[C@@H]1CCCN1C(=O)[C@@H]1CCCN1C(=O)[C@H](CCCNC(=N)N)NC(=O)[C@@H]1CCCN1C(=O)[C@H](CCCNC(=N)N)NC(=O)[C@@H]1CCCN1C(=O)[C@H](CC(C)C)NC(=O)[C@H](Cc1ccc(O)cc1)NC(=O)[C@@H]1CCCN1C(=O)[C@@H]1CCCN1C(=O)[C@H](CCCCN)NC(=O)[C@H](CC(=O)O)NC(=O)[C@@H](N)C(C)C)C(=O)N[C@@H](Cc1ccc(O)cc1)C(=O)N[C@@H](CC(N)=O)C(=O)N[C@H](CCCNC(=N)N)C(N)=O` [Onc112, reference compound] (H-VDKPPYLPRPRPPR[dR]IYN[dR]-NH2; N-terminus and C-terminus assumed), the MIC (E. coli ATCC 25922 [1]; [11]) is given as 4 µg/mL (≈ 1.67 µM), the “Recovery rate of injected peptide” value [2] is given as 32% and the Kd (70S ribosomes) is given as 90 nM. The remaining at 1 h, 75 μg/mL (in vitro) was > 89%, the “Dose rescuing all animals” value (E. coli ATCC 25922 [3]) was 2.5 mg/kg and the “Maximum plasma level reported for oncocins, compared with lower dose groups” value [4] was 8 µg/mL. For the same molecule, the maximum plasma levels relative to Api88 and Api137 was < 10 fold and the Serum half-life time [5] was “exceeded 8 h”.
For gu-ONNRPVYIPRPRPPHPRL-NH2, the fragment found [6] is given as “Api1-17, major, 30 min”, the fragment found [7] is given as “Api1-17, major, 5 min; also recorded: Api1-16, major, 5 min” and the fragment found (mouse serum in vitro) is given as “Api1-17, major; also recorded: Api1-16, major”. The fragment found [8] was “Api1-16, major, 10 min; also recorded: Api2-16; also recorded: Api7-18; also recorded: Api3-18; also recorded: Api7-12; also recorded: Api1-6; also recorded: Api1-17, major, 10 min” and the fragment found [9] was “Api1-17, major; also recorded: Api1-16, major”.
In the case of gu-ONNRPVYIPRPRPPHPRL-OH, the fragment found [6] is given as “Api1-17, major, 30 min”, the fragment found (mouse serum in vitro) is given as “Api1-17, major; also recorded: Api1-16, major” and the fragment found [8] is given as “Api1-17, major, 10 min; also recorded: Api1-16, major, 10 min; also recorded: Api7-12, minor; also recorded: Api2-16, minor; also recorded: Api2-18, minor”. The fragment found [9] was “Api1-17, major; also recorded: Api1-16, major”.
For `CC[C@H](C)[C@H](NC(=O)[C@H](CCCN)NC(=O)[C@H](CCCNC(=N)N)NC(=O)[C@@H]1CCCN1C(=O)[C@@H]1CCCN1C(=O)[C@H](CCCNC(=N)N)NC(=O)[C@@H]1CCCN1C(=O)[C@H](CCCNC(=N)N)NC(=O)[C@@H]1CCCN1C(=O)[C@H](CC(C)C)NC(=O)[C@H](Cc1ccc(O)cc1)NC(=O)[C@@H]1CCCN1C(=O)[C@@H]1CCCN1C(=O)[C@H](CCCCN)NC(=O)[C@H](CC(=O)O)NC(=O)[C@@H](N)C(C)C)C(=O)N[C@@H](Cc1ccc(O)cc1)C(=O)N[C@@H](CC(N)=O)C(=O)N[C@@H](CCCN)C(N)=O` [Onc72, reference compound] (H-VDKPPYLPRPRPPR[Orn]IYN[Orn]-NH2; N-terminus and C-terminus assumed), the MIC (E. coli ATCC 25922 [1]; [11]) is given as 16 µg/mL (≈ 6.94 µM), the “Recovery rate of injected peptide” value [2] is given as 47% and the Kd (70S ribosomes) is given as 450 nM. The remaining at 1 h, 75 μg/mL (in vitro) was > 89%, the “Dose rescuing all animals” value (E. coli ATCC 25922 [3]) was 5 mg/kg and the “Maximum plasma level reported for oncocins, compared with lower dose groups” value [4] was 6 µg/mL. For the same molecule, the “Plasma level reported for oncocin, compared with high dose groups” value [4] was 18000 ng/mL and the maximum plasma levels relative to Api88 and Api137 was < 10 fold.
